The values that follow come from patent US20210403419A1, “SERINE DERIVATIVE COMPOUND FOR THE PREVENTION OR TREATMENT OF CENTRAL NERVOUS SYSTEM DISEASES” (Astrogen Co., Ltd., priority 2019, published 2021).

For data set [1], the system named is hippocampal neuronal cell HT-22. The data set is described as follows: MTT cell viability / neuronal cell proliferation assay. As to conditions: for effect on cell proliferation in complete medium: L-serine versus AST-009, 25 to 10,000 μg. How it is done:
Murine hippocampal neuronal cell line HT-22 was cultured in Dulbecco's Modified Eagle's Medium (DMEM) supplemented with 10% fetal bovine serum (FBS) and 100 μg/ml gentamycin at 37° C. under a 5% CO2 atmosphere. In this Example, cells at passage 15 or below were used.
Cell proliferation activity was examined by an MTT assay for measuring cell viability. First, hippocampal neuronal cell HT-22 (1×10^4 cells) was incubated with each of serially diluted sample solutions in 96-well plates for 16 hours, and then mixed with 50 μl of MTT (3-(4,5-dimethyl thiazolyl)2,5-diphenyl tetrazolium bromide) solution (1.1 mg/ml), followed by additional incubation for 4 hours. The formed formazan crystal was dissolved in 150 μl of […], and the optical density (OD) at 540 nm was measured using a plate reader.

The subject of data set [2] is mouse hippocampal neuronal HT-22 cells treated with DMNQ. The data set is described as follows: Neuronal cell protection against DMNQ-induced oxidative stress (DiOC6 staining). The format is cell-based. As to conditions: DMNQ 10 μM, DMNQ alone 77.8%. On the procedure:
First, 1×10^6 cells were washed three times with 2% FBS-containing PBS solution, and the washed cells were suspended in 70% ethanol and fixed at 4° C. for 1 hour. The fixed cells were washed twice with the same solution, suspended in 250 μl of RNase A solution (50 μg/ml concentration), and incubated at 37° C. for 30 minutes to remove RNA from the cells. Then, DNA in the cells was stained at room temperature for 20 minutes by adding 250 μl of 1.12% sodium citrate buffer (pH 8.45) containing 50 μg/ml of propidium iodide. The cells were analyzed with a flow cytometer (FACS Calibur), and the distribution of the cell cycle was examined based on the content of stained DNA in each cell.
The cell protective activity of the selected drug (AST-009) against DMNQ-induced oxidative stress was compared by DiOC6 staining. […] Thus, it could be seen that the cell protective activity of AST-009 was much stronger than that of L-serine.

A short description of data set [3]: Blood-brain barrier (BBB) permeability in ICR mice. The format is in vivo. As to conditions: 500 mg/kg. On the procedure:
Each of L-serine and AST-099 was administered to 7-week-old ICR mice (n=3) at a dose of 500 mg/kg, and then the brain tissue and the blood were collected. The concentrations of L-serine distributed in the blood and the brain were quantified using LC/MS, and the BBB permeability was compared between the drugs by calculating the ratio of the concentration of L-serine in the brain to that in the blood.

The mark [4] stands for this setting: L-serine quantified by LC/MS, ICR mice, n=3.

For the compound `NCCCC[C@H](NC(=O)[C@H](CO)NC(=O)[C@H](CO)NC(=O)[C@H](CO)NC(=O)O)C(=O)O` [AST-009, H-Lys-Ser-Ser-Ser-OH], the “HT-22 cell proliferation (cell viability, MTT)” value in data set [1] (L-serine/glycerin-deficient medium, treatment concentration of 10,000 μg/ml (=10 mg/ml)) is on record as “up to 139%”. For the same compound, the “effect on cell proliferation in complete medium” value in data set [1] is “no significant difference”. Further, the “cell damage rate (membrane potential loss)” value in data set [2] (compound 0.5 mg/ml) was found to be 64.3%; in data set [2] (compound 1 mg/ml), 45.5%; in data set [2] (compound 5 mg/ml), 20.0%. Moreover, the “Concentration, Brain tissue” value in data set [3] (mouse, in vivo) is 7944 ± 427 ng/g. For the same compound, the “Concentration, Plasma” value in data set [3] (mouse, in vivo) was 1205 ± 120 ng/mL.
In the case of `N[C@@H](CO)C(=O)O` [L-serine], the “effect on cell proliferation at high concentration” value in data set [1] (L-serine/glycerin-deficient medium, concentration of 1 mg/ml or more) is recorded as “slightly inhibited cell proliferation”. Also, the “effect on cell proliferation in complete medium” value in data set [1] is listed as “no significant difference”. The figures for the “cell damage rate (membrane potential loss)” value in data set [2] (compound 0.5 mg/ml), in data set [2] (compound 1 mg/ml) and in data set [2] (compound 5 mg/ml) were 59.9%, 58.7% and 54.5%, respectively. Also, in data set [3] (setting [4]), the “Concentration, Brain tissue” value is given as 7314 ± 2071 ng/g. Further, the “Concentration, Plasma” value in data set [3] (setting [4]) was found to be 2121 ± 1192 ng/mL. Moreover, the Kp in data set [3] (mouse, brain/plasma, ratio of L-serine concentration in brain to that in blood, ICR mice, n=3, read-out: Cbrain/Cplasma) worked out at 4.16 ± 2.03. For the same compound, the Cbrain/Cplasma in data set [3] (ratio of L-serine concentration in brain to that in blood, ICR mice, n=3) was 4.16 ± 2.03.
